# According to PubChem BioAssay (NCI):
#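 Where inhibition never reached the appropriate level, the endpoint shown equals the highest concentration tested. Otherwise, values were interpolated linearly from a five-concentration, 48-hour dose response in 96-well plates. GI50: concentration for 50% inhibition of growth. At the TGI there is no net growth.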
# What was measured:
# Test in all cases: DTP human tumour cell line panel, 48 h
# DU-145 prostate = system: DU-145 prostate
# UO-31 renal = system: UO-31 renal
# U251 CNS = system: U251 CNS
# UACC-257 melanoma = system: UACC-257 melanoma
# SK-OV-3 ovarian = system: SK-OV-3 ovarian
# IGROV1 ovarian = system: IGROV1 ovarian
# UACC-62 melanoma = system: UACC-62 melanoma
# RXF 393 renal = system: RXF 393 renal
# HL-60(TB) leukemia = system: HL-60(TB) leukemia
# 786-0 renal = system: 786-0 renal
# M14 melanoma = system: M14 melanoma
# OVCAR-4 ovarian = system: OVCAR-4 ovarian
# RPMI-8226 leukemia = system: RPMI-8226 leukemia
# CAKI-1 renal = system: CAKI-1 renal
# OVCAR-5 ovarian = system: OVCAR-5 ovarian
# BT-549 breast = system: BT-549 breast
# ACHN renal = system: ACHN renal
# HS 578T breast = system: HS 578T breast
# T-47D breast = system: T-47D breast
# HCT-15 colon = system: HCT-15 colon
# SK-MEL-28 melanoma = system: SK-MEL-28 melanoma
# HCT-116 colon = system: HCT-116 colon
# OVCAR-8 ovarian = system: OVCAR-8 ovarian
# NCI-H226 lung = system: NCI-H226 lung
# SF-295 CNS = system: SF-295 CNS
# SF-268 CNS = system: SF-268 CNS
# SW-620 colon = system: SW-620 colon
# A549 NSCLC = system: A549 NSCLC
smiles,measurement,setting,value
CCN(CC)CCN1C(=O)c2c(c3c4cc(Br)ccc4[nH]c3c3ccc4ccccc4c23)C1=O,GI50,DU-145 prostate,1220 nM
same,TGI,DU-145 prostate,2560 nM
same,GI50,UO-31 renal,1320 nM
same,TGI,UO-31 renal,2620 nM
same,GI50,U251 CNS,1020 nM
same,TGI,U251 CNS,2210 nM
same,GI50,UACC-257 melanoma,1640 nM
same,TGI,UACC-257 melanoma,3010 nM
same,GI50,SK-OV-3 ovarian,1500 nM
same,TGI,SK-OV-3 ovarian,2900 nM
same,GI50,IGROV1 ovarian,1270 nM
same,TGI,IGROV1 ovarian,2820 nM
same,GI50,UACC-62 melanoma,1640 nM
same,TGI,UACC-62 melanoma,3500 nM
same,GI50,RXF 393 renal,1580 nM
same,TGI,RXF 393 renal,3000 nM
same,GI50,HL-60(TB) leukemia,1580 nM
same,TGI,HL-60(TB) leukemia,3980 nM
same,GI50,786-0 renal,1710 nM
same,TGI,786-0 renal,3110 nM
same,GI50,M14 melanoma,1570 nM
same,TGI,M14 melanoma,2960 nM
same,GI50,OVCAR-4 ovarian,1680 nM
same,TGI,OVCAR-4 ovarian,3220 nM
same,GI50,RPMI-8226 leukemia,1210 nM
same,TGI,RPMI-8226 leukemia,3230 nM
same,GI50,CAKI-1 renal,1250 nM
same,TGI,CAKI-1 renal,2630 nM
same,GI50,OVCAR-5 ovarian,1760 nM
same,TGI,OVCAR-5 ovarian,3230 nM
same,GI50,BT-549 breast,2220 nM
same,TGI,BT-549 breast,4070 nM
same,GI50,ACHN renal,1140 nM
same,TGI,ACHN renal,2360 nM
same,GI50,HS 578T breast,1940 nM
same,TGI,HS 578T breast,5020 nM
same,GI50,T-47D breast,700 nM
same,TGI,T-47D breast,2560 nM
same,GI50,HCT-15 colon,1400 nM
same,TGI,HCT-15 colon,3080 nM
same,GI50,SK-MEL-28 melanoma,1730 nM
same,TGI,SK-MEL-28 melanoma,3190 nM
same,GI50,HCT-116 colon,1250 nM
same,TGI,HCT-116 colon,2500 nM
same,GI50,OVCAR-8 ovarian,1270 nM
same,TGI,OVCAR-8 ovarian,2660 nM
same,GI50,NCI-H226 lung,5640 nM
same,TGI,NCI-H226 lung,33700 nM
same,GI50,SF-295 CNS,1610 nM
same,TGI,SF-295 CNS,3090 nM
same,GI50,SF-268 CNS,1520 nM
same,TGI,SF-268 CNS,3530 nM
same,GI50,SW-620 colon,553 nM
same,TGI,SW-620 colon,2160 nM
same,GI50,A549 NSCLC,1430 nM
same,TGI,A549 NSCLC,2790 nM
